According to US20170266289A1, “TOPICAL FORMULATION” (AbbVie Inc., priority 2014, published 2017):
“And” between values parts separate entries of the source, which are not always exact repeats. Identical values can stand only once. Like-named read-outs stand apart in the source and are kept apart here. Values belong to the molecule of their own block, whether it stands above or below them.

Columns and labels:
[1] = Plasma PK and skin concentration after topical application of gel-cream to shaved backs of rats; format: in vivo; settings: for Kp at 24 h: skin/plasma; for Cmax / AUC(0-t): topical or ocular, rat plasma
Experimental: In order to assess the effect of the permeation enhancer on API delivery to the skin (topical delivery) and to the plasma (systamic delivery) in vivo, 177.8 mg of the subject topical formulation (177.8 μL of the 1% Compound 1 gel-cream, or about 1.778 mg of Compound 1) was applied to the backs of rats on a 4 cm^2 area of shaved skin. Plasma PK data was obtained during a period of about 24 hours following the topical application. See results in FIG. 9A, and the tables below.
The same experiment was repeated for a topical formulation using Compound 2 as the API. Also see FIG. 9B.

[2] = system: FITC-induced contact hypersensitivity (CHS); assay: Prophylactic topical treatment of FITC-induced contact hypersensitivity, ear skin thickness; format: in vivo, mice; settings: 1 hr prior to FITC challenge
From the text: Contact hypersensitivity (CHS) is an immunological response against a small chemical hapten. During the sensitization phase, dermal dendritic cells (DCs) and Langerhans cells take up the hapten peptide conjugate and process it and migrate to the draining lymph node, where they present the antigen (Ag) to naive T cells, leading to the formation of Ag-specific memory T cells. Subsequent contact with the same chemical results in the activation of memory T cells and the recruitment of inflammatory cells to the site of allergen exposure. This elicitation response is manifested as skin inflammation, which in a clinical context is called allergic contact dermatitis. One of the small chemical haptens is FITC. FITC-induced CHS is believed to be predominantly associated with the activation of Th2 cells. Upon challenging the skin with FITC in mice sensitized with FITC, it is believed that FITC-specific T cells are recruited to the skin and produce Th2 cytokines, including IL-4.
Briefly, on Day 0, ears of experimental animals were sensitized with FITC. On Day 6, ears of the treatment group animals (0.01%, 0.1%, and 1% treatment groups) were first provided topical treatment of the subject formulations one hour prior to the FITC challenge. Specifically, 20 μL total (10 μL inner ear, and 10 μL outer ear) of topical treatment were massaged all around the ear of each experimental animals prior to FITC epicutaneous application. […] Naïve group animals received no treatment during the experiment. On Day 7, about 24 hours post FITC challenge, ear thickness (in mm) of all animals were measured.
Betamethasone Dipropionate (BMS DPP) topical cream formulations with different concentrations (0.005%, 0.01%, 0.1%, and 1% w/w) were prepared according to Example 3.

[3] = system: FITC-induced contact hypersensitivity (CHS); assay: Topical treatment after FITC challenge in FITC-induced contact hypersensitivity, ear skin thickness; format: in vivo, mice; settings: 4 hrs post FITC challenge
Experimental: Briefly, on Day 0, ears of experimental animals were sensitized with FITC. […] Naïve group animals received no treatment during the experiment. On Day 7, about 24 hours post FITC challenge, ear thickness (in mm) of all animals were measured. […]

[4] = Stability in plasma; format: in vitro ADME
From the text: Note that, due to the fact that BMS DPP is unstable in the plasma, the total blood concentration of BMS DPP cannot be determined.

[5] = In vitro release testing in Franz Cells, flux through Tuffryn membrane; format: in vitro ADME
Experimental: (§1) Diffusion assays were performed using Franz Cells and […]® plates, with Tuffryn®, polycarbonate, or polyester membranes, as well as hairless mouse skin. HPLC was employed to analyze in vitro samples.
Specifically, for the in vitro release testing in Franz Cells, vertical diffusion cells were filled with receptor media (phosphate buffer with 2% BSA). The receptor media was then agitated, with the exception of setup and sampling. Temperature is maintained at 32.5±2.0° C. Artificial membrane was then placed on the top of the cell, along with a dosage wafer, the formulation to be evaluated, and a glass sealing cap. A formulation permeability test was run in triplicate. Samples were collected at various programmed intervals, and sampling was an automated process by the system. Fresh media was pushed into the bottom of the cell while simultaneous sampling occurs from the top of the cell. All wells were sampled in a serial manner with the time of each sample recorded by the instrument.
(§2) Generally, flux is calculated by determining the amount of solute that diffuses across a membrane of known surface area per unit time. There are many ways to calculate this value. We measured solute concentration in known volumes of receiver media and calculated the total amount that diffused over the time course of the experiment.

[6] = In vitro release testing in […] plates, flux through polycarbonate membrane; format: in vitro ADME
Experimental: as §1
(§3) For in vitro release testing in […]® plates, a two-compartment well system was used, with an internal well having a membrane as the formulation compartment, and an outer well filled with receptor media (phosphate buffer with 2% BSA). The TRANS WELL® plates were then agitated in a temperature-controlled incubator with shaker. Samples were manually pulled at pre-determined intervals with a pipette. New media was added to the receptor well after each sampling to make up the volume loss.
as §2

[7] = In vitro release testing in […] plates, flux through polyester membrane; format: in vitro ADME
Experimental: as §1, §3, §2

[8] = Optical microscopy examination of the formulations; format: physicochemical; settings: increasing the Transcutol HP content; data not shown
From the text: Thus maintaining a saturated solution with the presence of TRANSCUTOL HP™ is expected to increase in vitro flux and increase resultant skin exposures.

[9] = individual rats 1-3, topical 177.8 mg/animal in Formulation A (no Transcutol HP), 24 hr after dose
[10] = individual rats 4-6, topical 177.8 mg/animal in Formulation B (10% Transcutol HP), 24 hr after dose

- Plasma Conc. [1, 9]: 0.00 ng/mL
- Skin Conc. [1, 9]: 2393 ng/g and 5908 ng/g and 7728 ng/g
- Skin/Plasma Ratio ([1]; individual rats 4-6, Formulation B, 24 hr after dose): 11076
- Plasma Conc. [1, 10]: 4.46 ng/mL and 2.87 ng/mL and 0.00 ng/mL
- Skin Conc. [1, 10]: 31734 ng/g and 16020 ng/g
- concentration at 24 h ([1]; rat, plasma, topical, 177.8 mg, mean of rats 1-3, Formulation A, 24 hr after dose, read-out: Plasma Conc., Mean): 0 ng/mL
- concentration at 24 h ([1]; rat, plasma, topical, 177.8 mg, mean of rats 4-6, Formulation B, 24 hr after dose, read-out: Plasma Conc., Mean): 2.44 ng/mL
- concentration at 24 h ([1]; rat, plasma, topical, 177.8 mg/animal, individual rats 1-3, topical 177.8 mg/animal in Formulation A (no Transcutol HP), 24 hr after dose, read-out: Plasma Conc.): 0 ng/mL
- concentration at 24 h ([1]; rat, skin, topical, 177.8 mg, mean of rats 1-3, Formulation A, 24 hr after dose, read-out: Skin Conc., Mean): 5340 ng/g
- concentration at 24 h ([1]; rat, skin, topical, 177.8 mg, mean of rats 4-6, Formulation B, 24 hr after dose, read-out: Skin Conc., Mean): 25000 ng/g
- concentration at 24 h ([1]; rat, skin, topical, 177.8 mg/animal, individual rats 4-6, topical 177.8 mg/animal in Formulation B (10% Transcutol HP), 24 hr after dose, read-out: Skin Conc.): 27100 ng/g
- Kp at 24 h ([1]; rat, topical, 177.8 mg, individual rats 4-6, Formulation B, 24 hr after dose, read-out: Skin/Plasma Ratio): 6080
- Kp at 24 h ([1]; rat, topical, 177.8 mg, mean, Formulation B, 24 hr after dose, read-out: Skin/Plasma Ratio, Mean): 8580
SMILES: CC[C@@H]1CN(C(=O)NCC(F)(F)F)C[C@@H]1c1cnc2cnc3[nH]ccc3n12 [Compound 2, (3S,4R)-3-ethyl-4-(3H-imidazo[1,2-a]pyrrolo[2,3-e]pyrazin-8-yl)-N-(2,2,2-trifluoroethyl)pyrrolidine-1-carboxamide]

- stability in the plasma [4]: unstable
SMILES: CCC(=O)OCC(=O)[C@@]1(OC(=O)CC)[C@@H](C)C[C@H]2[C@@H]3CCC4=CC(=O)C=C[C@]4(C)[C@@]3(F)[C@@H](O)C[C@@]21C [BMS DPP, Betamethasone Dipropionate]
- reduced ear skin thickness ([2]; Study 1, 0.01%): 77%
- reduced ear skin thickness ([2]; Study 1, 0.1%): 93%
- reduced ear skin thickness ([2]; Study 1, 1%): 95%
- reduced ear skin thickness ([2]; Study 2, 0.005%): 61%
- reduced ear skin thickness ([2]; Study 2, 0.01%): 73%
- reduced ear skin thickness ([2]; Study 2, 0.1%): 93%
- reduced ear skin thickness, effect ([2]; combined Study 1 and 2, 0.005%): 61%
- reduced ear skin thickness, effect ([2]; combined Study 1 and 2, 0.01%): 75%
- reduced ear skin thickness, effect ([2]; combined Study 1 and 2, 0.1%): 93%
- reduced ear skin thickness, effect ([2]; combined Study 1 and 2, 1%): 95%
- reduced ear skin thickness ([3]; Study 1, 0.1%): 95%
- reduced ear skin thickness ([3]; Study 1, 1%): 96%
- reduced ear skin thickness ([3]; Study 2, 0.01%): 92%
- reduced ear skin thickness ([3]; Study 2, 0.1%): 96%
- reduced ear skin thickness, effect ([3]; combined Study 1 and 2, 0.01%): 92%
- reduced ear skin thickness, effect ([3]; combined Study 1 and 2, 0.1%): 95%
- reduced ear skin thickness, effect ([3]; combined Study 1 and 2, 1%): 96%

- Cmax ([1]; rat, plasma, 177.8 mg, 177.8 mg 1% gel-cream topical on 4 cm^2, 10% Transcutol HP): 70.7 ng/mL
- Cmax ([1]; rat, plasma, 177.8 mg, 177.8 mg 1% gel-cream topical on 4 cm^2, no permeation enhancer): 11.4 ng/mL
- AUC(0-t) ([1]; rat, plasma, 177.8 mg, 177.8 mg 1% gel-cream topical, 10% Transcutol HP): 392 ng·h/mL
- AUC(0-t) ([1]; rat, plasma, 177.8 mg, 177.8 mg 1% gel-cream topical, no permeation enhancer): 62.4 ng·h/mL
- concentration at 24 h ([1]; rat, skin, topical, 1.778 mg, rat skin, 177.8 mg 1% gel-cream topical, 10% Transcutol HP, read-out: Skin conc. 24 hr): 25000 ng/g
- concentration at 24 h ([1]; rat, skin, topical, 1.778 mg, rat skin, 177.8 mg 1% gel-cream topical, no permeation enhancer, read-out: Skin conc. 24 hr): 5340 ng/g
- Ratio Transcutol HP/no enhancer, Plasma AUC0-t ([1]; rat, topical): 6.28
- Ratio Transcutol HP/no enhancer, Skin conc. 24 hr ([1]; rat, topical): 4.67
- Ratio Transcutol HP/no enhancer, Flux Franz Cells Tuffryn membrane [5]: 1.20
- Flux Franz Cells Tuffryn membrane ([5]; Transcutol 10%): 7.64
- Flux Franz Cells Tuffryn membrane ([5]; no permeation enhancer): 6.34
- Ratio Transcutol HP/no enhancer, Flux TRANSWELL plate Polycarbonate membrane [6]: 1.35
- Flux TRANSWELL plate Polycarbonate membrane ([6]; Transcutol 10%): 11.46
- Flux TRANSWELL plate Polycarbonate membrane ([6]; no permeation enhancer): 8.52
- Ratio Transcutol HP/no enhancer, Flux TRANSWELL Plate polyester membrane [7]: 1.33
- Flux TRANSWELL Plate polyester membrane ([7]; Transcutol 10%): 5.42
- Flux TRANSWELL Plate polyester membrane ([7]; no permeation enhancer): 4.09
- amount solubilized in the gel-cream formulation [8]: solubilizes a greater amount
SMILES: CC[C@@H]1C[C@H](NS(=O)(=O)C2CC2)C[C@@H]1c1nnc2cnc3[nH]ccc3n12 [Compound 1, N-((1S,3R,4S)-3-ethyl-4-(6H-pyrrolo[2,3-e][1,2,4]triazolo[4,3-a]pyrazin-1-yl)cyclopentyl)cyclopropanesulfonamide]
